Experimental data as given in patent US10723699B2 (Hyundai Pharm Co., Ltd., priority 2015, dated 2020).
“Also recorded” adds a separate entry of the source. Where two headings read alike, the source gives them in different places.

Assays:
[1] = target: T1, G protein-coupled receptor 119 (GPR-119) (Mesocricetus auratus, UniProt A0A1U8CD06); assay: cAMP activity in HIT-T15 cells (cAMP dynamic kit, FRET); format: cell-based, hamster
T1 construct: hamster-derived β-cells containing G protein-coupled receptor 119 (GPR-119), HIT-T15 cells; host or cells: HIT-T15 (hamster pancreatic β-cells)
T1 sequence (A0A1U8CD06 1-334): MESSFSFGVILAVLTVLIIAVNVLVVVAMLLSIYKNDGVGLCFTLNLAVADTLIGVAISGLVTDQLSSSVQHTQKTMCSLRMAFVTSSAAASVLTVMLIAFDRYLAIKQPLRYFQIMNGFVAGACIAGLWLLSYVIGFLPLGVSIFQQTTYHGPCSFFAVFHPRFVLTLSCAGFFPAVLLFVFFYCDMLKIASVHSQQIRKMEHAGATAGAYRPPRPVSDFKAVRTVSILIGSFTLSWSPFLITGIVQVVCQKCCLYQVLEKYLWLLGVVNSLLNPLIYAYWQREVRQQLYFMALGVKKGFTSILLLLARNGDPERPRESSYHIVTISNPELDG
Outline: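 Hamster HIT-T15 cells (60,000/well) were treated next day with compound at six concentrations, 0.0032–10 μM, for 1 h at 37° C. Cells were then lysed and cAMP measured by competitive HTRF immunoassay (D2-cAMP, cryptate anti-cAMP). Activity was derived as the change in FRET signal relative to DMSO.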

CYP1A2 = target: T2, CYP1A2 (Homo sapiens, UniProt P05177); assay: CYP inhibition assay (BD GENTEST kit); format: in vitro ADME; settings: for inhibition at 15 min, 10 µM: human, CYP1A2 enzyme/substrate mixture of BD GENTEST kit, pH 7.4, 10 μM, read-out: CYP inhibition (% at 10 μM) 1A2
T2 construct: purchased BD GENTEST 459100
T2 sequence (P05177 1-516): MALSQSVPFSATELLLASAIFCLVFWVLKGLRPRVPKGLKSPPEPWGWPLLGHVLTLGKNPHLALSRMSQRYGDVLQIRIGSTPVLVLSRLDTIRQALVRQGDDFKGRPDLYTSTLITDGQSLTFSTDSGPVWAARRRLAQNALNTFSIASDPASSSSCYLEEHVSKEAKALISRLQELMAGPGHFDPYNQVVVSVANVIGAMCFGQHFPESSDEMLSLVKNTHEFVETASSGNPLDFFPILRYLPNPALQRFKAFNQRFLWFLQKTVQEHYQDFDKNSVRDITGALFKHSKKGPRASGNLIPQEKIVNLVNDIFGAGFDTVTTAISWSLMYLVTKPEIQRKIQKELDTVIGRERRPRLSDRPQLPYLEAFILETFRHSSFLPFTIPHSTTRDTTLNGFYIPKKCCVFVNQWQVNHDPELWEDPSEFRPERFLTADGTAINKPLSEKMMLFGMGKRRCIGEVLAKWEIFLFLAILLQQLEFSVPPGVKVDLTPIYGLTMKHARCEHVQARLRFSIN
Description: (§1) CYP enzymes play a major role in the metabolism of drugs. Depending on the inhibition activity of the CYP enzymes, the dose of the drugs and toxicity due to the co-administration of other drugs can be predicted. Therefore, we have measured the inhibitory activity for CYP3A4, CYP2C9, CYP1A2, CYP2D6 and CYP2C19 enzymes present in the body using the compounds of the present invention. Invitrogen P2862 kit was used for CYP2D6 inhibition assay, and BD GENTEST (459100, 459300, 459400, 459500) kits were used for CYP1A2, CYP2C9, CYP2C19 and CYP3A4 inhibition assay. In case of Invitrogen kit, the test materials were diluted in distilled water into 2.5× of the final test concentration.
(§2) In case of BD GENTEST kit, the test materials were diluted in acetonitrile into 50× of the final test concentration. NADPH-cofactor mixture containing cofactor, G6PDH and control protein was prepared in distilled water as per manufacturer's instruction. 4 μl of 50× test materials and 96 μl of NADPH-cofactor mixture were mixed in U-bottom 96-well plate, and the resulting mixture were pre-incubated at 37° C. for 10 minutes. Predetermined concentrations of enzyme/substrate mixture were prepared in distilled water using buffer (0.5M potassium phosphate, pH 7.4) and each of CYP450 enzyme/substrate mixture provided in the kit for the types of CYP450. To the pre-incubated plate, 100 μl of enzyme/substrate mixture was added, and then incubated at 37° C. for 15 minutes (CYP1A2), 30 minutes (CYP3A4 and CYP2C19) or 1.5 hours (CYP2C9). After completion of the reaction, the reactants were transferred to the white plates, and fluorescent values were measured using a micro-plate reader (Excitation and absorption wavelengths of CYP1A2 and CYP2C19 were 410 nm and 460 nm, respectively; and excitation and absorption wavelengths of CYP2C9 and CYP3A4 were 409 nm and 530 nm, respectively).
(§3) The measured values were converted into the inhibition percent of the test materials as compared to the value of the untreated control, and the results were summarized in Table 5.

CYP2C19 = target: T3, CYP2C19 (Homo sapiens, UniProt P33261); assay: CYP inhibition assay (BD GENTEST kit); format: in vitro ADME; settings: human, CYP2C19 enzyme/substrate mixture of BD GENTEST kit, pH 7.4, 10 μM; read-out: CYP inhibition (% at 10 μM) 2C19
T3 construct: purchased BD GENTEST 459400
T3 sequence (P33261 whole entry): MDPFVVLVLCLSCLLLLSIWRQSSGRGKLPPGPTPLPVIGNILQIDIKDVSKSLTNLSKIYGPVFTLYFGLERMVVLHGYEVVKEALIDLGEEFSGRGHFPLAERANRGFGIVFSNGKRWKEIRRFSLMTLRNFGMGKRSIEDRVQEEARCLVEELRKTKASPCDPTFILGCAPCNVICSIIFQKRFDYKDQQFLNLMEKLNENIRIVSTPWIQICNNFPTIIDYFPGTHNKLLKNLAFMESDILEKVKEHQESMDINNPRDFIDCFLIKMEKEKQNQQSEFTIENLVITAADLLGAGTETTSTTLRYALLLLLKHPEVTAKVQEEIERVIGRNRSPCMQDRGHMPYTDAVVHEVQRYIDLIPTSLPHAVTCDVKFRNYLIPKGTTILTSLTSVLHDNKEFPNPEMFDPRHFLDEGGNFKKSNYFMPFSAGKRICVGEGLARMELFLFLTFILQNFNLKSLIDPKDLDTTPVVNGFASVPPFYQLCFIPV
Description: as §1, §2, §3

CYP2C9 = target: T4, CYP2C9 (Homo sapiens, UniProt P11712); assay: CYP inhibition assay (BD GENTEST kit); format: in vitro ADME; settings: for inhibition at 1.5 h, 10 µM: human, CYP2C9 enzyme/substrate mixture of BD GENTEST kit, pH 7.4, 10 μM, read-out: CYP inhibition (% at 10 μM) 2C9
T4 construct: purchased BD GENTEST 459300
T4 sequence (P11712 whole entry): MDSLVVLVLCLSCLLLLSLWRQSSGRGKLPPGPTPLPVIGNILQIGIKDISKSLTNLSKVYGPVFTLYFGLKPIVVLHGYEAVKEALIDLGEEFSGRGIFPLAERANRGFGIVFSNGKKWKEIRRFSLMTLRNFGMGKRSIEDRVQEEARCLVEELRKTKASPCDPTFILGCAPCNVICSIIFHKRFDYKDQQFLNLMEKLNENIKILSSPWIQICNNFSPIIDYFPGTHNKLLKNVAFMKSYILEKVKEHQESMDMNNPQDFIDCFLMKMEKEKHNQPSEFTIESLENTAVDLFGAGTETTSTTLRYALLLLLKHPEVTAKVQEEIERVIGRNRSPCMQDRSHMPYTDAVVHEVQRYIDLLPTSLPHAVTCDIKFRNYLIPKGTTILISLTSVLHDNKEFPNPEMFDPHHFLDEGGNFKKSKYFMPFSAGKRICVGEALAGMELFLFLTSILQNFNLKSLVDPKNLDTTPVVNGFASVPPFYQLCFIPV
Description: as §1, §2, §3

CYP3A4 = target: T5, CYP3A4 (Homo sapiens, UniProt P08684); assay: CYP inhibition assay (BD GENTEST kit); format: in vitro ADME; settings: human, CYP3A4 enzyme/substrate mixture of BD GENTEST kit, pH 7.4, 10 μM; read-out: CYP inhibition (% at 10 μM) 3A4
T5 construct: purchased BD GENTEST 459500
T5 sequence (P08684 whole entry): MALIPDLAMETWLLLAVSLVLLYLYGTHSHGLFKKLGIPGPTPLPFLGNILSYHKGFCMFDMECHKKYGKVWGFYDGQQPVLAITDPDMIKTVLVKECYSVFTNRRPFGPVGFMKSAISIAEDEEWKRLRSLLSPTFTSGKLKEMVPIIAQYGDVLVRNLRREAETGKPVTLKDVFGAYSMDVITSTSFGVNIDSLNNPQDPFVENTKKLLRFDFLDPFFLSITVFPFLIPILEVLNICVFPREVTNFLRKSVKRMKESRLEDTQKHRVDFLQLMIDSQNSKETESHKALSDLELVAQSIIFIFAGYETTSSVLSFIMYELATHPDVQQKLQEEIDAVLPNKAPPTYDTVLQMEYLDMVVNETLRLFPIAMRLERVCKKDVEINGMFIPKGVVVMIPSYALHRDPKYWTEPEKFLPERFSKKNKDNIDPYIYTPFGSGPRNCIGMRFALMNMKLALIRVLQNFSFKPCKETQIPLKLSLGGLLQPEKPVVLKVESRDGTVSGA
Description: as §1, §2, §3

CYP2D6 = target: T6, CYP2D6 (Homo sapiens, UniProt P10635); assay: CYP inhibition assay (Invitrogen P2862 kit); format: in vitro ADME; settings: for inhibition at 1 h, 10 µM: human, CYP2D6 P450 BACULOSOMES (Invitrogen P2862 kit), probe Vivid CYP450 substrate, read-out: CYP inhibition (% at 10 μM) 2D6
T6 construct: purchased Invitrogen P2862
T6 sequence (P10635 whole entry): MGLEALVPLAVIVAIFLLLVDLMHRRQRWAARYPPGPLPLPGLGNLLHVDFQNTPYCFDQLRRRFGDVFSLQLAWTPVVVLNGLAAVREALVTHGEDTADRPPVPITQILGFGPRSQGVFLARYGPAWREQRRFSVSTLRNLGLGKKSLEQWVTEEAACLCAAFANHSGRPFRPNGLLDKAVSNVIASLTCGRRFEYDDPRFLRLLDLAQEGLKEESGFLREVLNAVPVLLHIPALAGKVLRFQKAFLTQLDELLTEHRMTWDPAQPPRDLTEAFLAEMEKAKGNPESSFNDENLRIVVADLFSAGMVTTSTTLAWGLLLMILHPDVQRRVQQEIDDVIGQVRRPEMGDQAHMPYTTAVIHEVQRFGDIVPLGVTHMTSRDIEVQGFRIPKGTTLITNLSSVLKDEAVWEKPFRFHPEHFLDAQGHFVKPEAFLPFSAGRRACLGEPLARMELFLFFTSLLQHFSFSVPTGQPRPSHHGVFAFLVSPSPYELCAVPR
Description: as §1
P450 BACULOSOMES® reagent and regeneration device (100×) provided by the Invitrogen kit were diluted in the Vivid® reaction buffer (2×) into the appropriate concentration for the type of CYP450. After mixing 80 μl of the 2.5× test material and 100 μl of the mixture of the diluted P450 BACULOSOMES® reagent in U-bottom 96-well plate, the resulting mixture was pre-incubated for 20 minutes. Vivid® CYP450 substrate and NADP+ (100×) were diluted in the Vivid® CYP450 reaction buffer (2×) into the appropriate concentration for the types of CYP450 and the substrates. After completion of the pre-incubation, 20/l of the substrate-NADP (nicotinamide adenine dinucleotide phosphate) mixture was added, and then incubated for 1 hour. After completion of the reaction, the reactants were transferred to the white plates, and fluorescence values were measured using a micro-plate reader (Excitation and absorption wavelengths of CYP2D6 were 400 nm and 502 nm, respectively).
as §3

[2] = test system: male C57BL/6J (C57 black 6) rats in a high-fat diet model; assay: Oral glucose tolerance test (OGTT), high-fat diet model; format: in vivo; settings: 20 mg/kg oral, Table 3
Experimental: To evaluate in vivo effective effects of the cyclohexene derivatives according to the present invention, experiments were carried out, as follows.
Specifically, male C57BL/6J (C57 black 6) […] (8 to 10 weeks old) in a high-fat diet model were acclimated for at least 7 days, and only healthy rat populations were selected and subjected to an oral glucose tolerance test (OGTT). The rats were fasted for 12 to 15 hours, and then randomly divided into groups with five rats per group. Thereafter, each of the compounds of Examples 1, 14, 48, 69, 80, 118, 139, 147, 148, 169, 190, 199, 200, 204, 227, 277, 290, 291, 442, 443, and 461 to 466, and Comparative Examples 1 and 2 according to the present invention was administered to the rats at a dose of 20 mg/kg. In this case, a vehicle (0.5%, carboxymethyl cellulose (CMC)) was administered as an untreated group, and the dose of the compound administered together with the vehicle was orally administered at 10 ml/kg. After 30 minutes of administration, glucose (2 g/kg) was orally administered at a dose of 10 ml/kg. A blood glucose level was measured using an Accu-Chek Active Strip (Rosche Diagnostic Co.). In this case, the glucose level in blood collected via caudal venipuncture was measured at time points of −30, 0, 20, 40, 60, and 120 minutes after glucose administration. […]

[3] = test system: diet-induced obesity (DIO) rat model; assay: Changes in weights in diet-induced obesity (DIO) rat model, 4-week administration; format: in vivo, Sprague Dawley (SD) rats; settings: 300 mg/kg oral, 4 weeks
Experimental: To simultaneously evaluate both the weight-loss and hypoglycemic effects of the cyclohexene derivative according to the present invention, experiments were carried out, as follows.
(§4) Specifically, male Sprague Dawley (SD) rats (approximately 4 weeks old) in a diet-induced obesity model were fed with a high-fat diet (Lab. Diet Co.) for approximately 10 weeks to induce high-fat diet-induced obesity (DIO). The rats undergoing the high-fat diet were randomly selected, and divided into groups (n=8) for respective administrations. The compounds of Comparative Examples 3 and 4 and Examples 48 and 119 were administered to the divided DIO rats each group for 4 weeks.
(§5) The weights of the DIO rats were measured twice a week during a period of administration of 4 weeks to record a change in the weights. At the end of the 4-week period of administration, a hypoglycemic effect was evaluated using an oral glucose tolerance test (OGTT), as follows.

[4] = test system: diet-induced obesity (DIO) rat model; assay: OGTT at the end of the 4-week administration in DIO rat model; format: in vivo, Sprague Dawley (SD) rats; settings: 300 mg/kg oral; glucose 2 g/kg 30 minutes later; after 4-week administration
Experimental: as §4, §5
Specifically, each of the compounds of Comparative Example 3 (300 mg/kg) and Examples 48 and 119 (10, 20, 50 mg/kg) was administered, and 2 g/kg of glucose was orally administered after 30 minutes of the administration. A blood glucose level was determined using an Accu-Chek Active Strip (Roche diagnostic Co.). In this case, the glucose level in blood collected via caudal venipuncture was measured at time points of −30, 0, 20, 40, 60, and 120 minutes after glucose administration. […]

Row | SMILES | inhibition at 30 min, 10 µM (CYP2C19) [%] | inhibition at 30 min, 10 µM (CYP3A4) [%] | hypoglycemic effect [2] [%] | inhibition at 15 min, 10 µM (CYP1A2) [%] | inhibition at 1.5 h, 10 µM (CYP2C9) [%] | inhibition at 1 h, 10 µM (CYP2D6) [%] | other results
1 | CCc1cnc(N2CCC(COc3ccc(C4=CCC(C(=O)N5CCC[C@@H]5CO)CC4)cc3)CC2)nc1 (single isomer, unassigned; (+)) [Example 290] | 44.9 | 33.1 |  |  |  |  | EC50 ([1]; 1 hour at 37° C., six concentrations 0.0032 to 10 μM, read-out: EC50): 3.8 nM; EC50 ([1]; Table 2, read-out: EC50 value): ≤ 50 nM; CYP inhibition (% at 10 μM) 1A2 (CYP1A2; 10 μM): 3.82%; CYP inhibition (% at 10 μM) 2C9 (CYP2C9; 10 μM): 23.97%; CYP inhibition (% at 10 μM) 2D6 (CYP2D6; 10 µM): 48.97%
2 | CC(C)c1noc(C2CCN(c3ncnc(Nc4ccc(S(C)(=O)=O)cc4F)c3[N+](=O)[O-])CC2)n1 [Comparative Example 1, N-(2-fluoro-4-methylsulfonylphenyl)-5-nitro-6-[4-(3-propan-2-yl-1,2,4-oxadiazol-5-yl)piperidin-1-yl]pyrimidine-4-amine, reference compound] |  | 47.8 | 13.5 | 10.4 | 24.1 | 9.84 | 
3 | CC(C)c1noc(N2CCC(COc3ccc(-c4ccc(S(C)(=O)=O)cc4)nc3)CC2)n1 [Comparative Example 2, 2-(4-methanesulfonylphenyl)-5-({1-[3-(propan-2-yl)-1,2,4-oxadiazol-5-yl]piperidin-4-yl}methoxy)pyridine] |  |  | 15.3 |  |  |  | 
4 | CN(C)C(=N)NC(=N)N [Comparative Example 3, Metformin] |  |  |  |  |  |  | changes in weights of rats (weight-loss effect) [3]: weight loss was observed for 2 weeks; also recorded: the weight rather increased after 2 weeks; hypoglycemic effect [4]: approximately 22%
5 | CCc1cnc(N2CCC(COc3ccc(C4=CCC(C(=O)N5CCC[C@@H]5CO)CC4)cc3)CC2)nc1 (stereo partly drawn) [Example 118, (4-(4-((1-(5-ethylpyrimidin-2-yl)piperidin-4-yl)methoxy)phenyl)cyclohex-3-enyl)((R)-2-(hydroxymethyl)pyrrolidin-1-yl)methanone] | 48.4 | 48.2 |  | 0 | 29.8 | 9.42 | 
